Experimental data reported in ChEMBL document CHEMBL3994641, “Design, synthesis, and cytotoxicity of stabilized mycolactone analogs” (Bioorg Med Chem Lett, 2017).

Tests used:
[1] = Stability of the compound in 0.1 M NaOH in MeOH at 0.5 mg after 14 hrs by 1H-NMR spectroscopy; assay type: physicochemical
[2] = Stability of the compound in acetone irradiated with UV light at 1 mg after 2 to 72 hrs by 1H-NMR spectroscopy; assay type: physicochemical
[3] = tested on: A549; experiment: Cytotoxicity against human A549 cells after 72 hrs by CellTiter blue staining based microscopic method; assay type: functional, cell-based; settings: A549, 72 h
[4] = tested on: HEK293; experiment: Cytotoxicity against human HEK293 cells after 72 hrs by CellTiter blue staining based microscopic method; assay type: cell-based; settings: HEK293, 72 h
[5] = Drug metabolism assessed as initial E/Zdouble-bond isomerization followed by photocyclization in acetone irradiated with UV light at 1 mg after 2 to 72 hrs by 1H-NMR spectroscopy; assay type: physicochemical
[6] = Stability of the compound in 1 N HCl in water/0.1% Triton-X-100; assay type: physicochemical; settings: buffer
[7] = Stability of the compound in 0.1 M HCl in MeOH at 0.5 mg after 8 hrs by 1H-NMR spectroscopy; assay type: physicochemical
[8] = Stability of the compound in 1 N NaOH in water/0.1% Triton-X-100; assay type: physicochemical; settings: buffer
[9] = Stability of the compound in 0.1 M NaOH in MeOH at 0.5 mg after 2 hrs by 1H-NMR spectroscopy; assay type: physicochemical
[10] = Thermal stability of the compound in acetone under sunlight at 60 degreeC after 10 days; assay type: physicochemical; settings: 240 h
[11] = Stability of the compound in 0.1 M HCl in MeOH at 0.5 mg after 2 hrs by 1H-NMR spectroscopy; assay type: physicochemical
[12] = tested on: LOX IMVI; experiment: Cytotoxicity against human LOXIMVI cells after 72 hrs by CellTiter blue staining based microscopic method; assay type: functional, cell-based
[13] = tested on: L929; experiment: Cytotoxicity against mouse L929 cells after 72 hrs by CellTiter blue staining based microscopic method; assay type: cell-based; settings: L929, 72 h
[14] = Thermal stability of the compound in acetone under sunlight at 60 degreeC after 1 day; assay type: physicochemical; settings: 24 h
[15] = Solubility of the compound in water; assay type: physicochemical; settings: buffer
[16] = Drug metabolism assessed as compound decomposition in DMSO/EtOH at -20 degreeC after 3 years; assay type: physicochemical; settings: read-out: Drug metabolism
[17] = Solubility of the compound in water/0.1% Triton-X-100/NP-40; assay type: physicochemical; settings: buffer
[18] = Drug metabolism assessed as compound decomposition in 0.1 M NaOH in MeOH at 0.5 mg after 14 hrs by 1H-NMR spectroscopy; assay type: physicochemical; settings: read-out: Drug metabolism
[19] = Drug metabolism assessed as E/Z double-bond isomerization by measuring delta4',5'-Z and delta4',5'-E isomers in acetone under sunlight at 60 degreeC after 10 days; assay type: physicochemical; settings: 240 h
[20] = Drug metabolism assessed as E/Z double-bond isomerization by measuring delta4',5'-Z and delta4',5'-E isomers in acetone under sunlight at 60 degreeC after 1 day; assay type: physicochemical; settings: 24 h
[21] = Drug metabolism assessed as compound decomposition in neat at room temperature up to 10 days; assay type: physicochemical; settings: read-out: Drug metabolism
[22] = Drug metabolism assessed as compound decomposition in 0.1 M HCl in MeOH at 0.5 mg after 8 hrs by 1H-NMR spectroscopy; assay type: physicochemical; settings: read-out: Drug metabolism
[23] = Stability of the compound in DMSO/EtOH at -20 degreeC assessed as decomposition up to 1 month; assay type: physicochemical

Stability [1] | Stability [2] | Drug metabolism [5] | Stability [6] | Stability [7] | Stability [8] | Stability [9] | Stability [10] | Stability [11] | Stability [14] | Compound | IC50 [3] [nM] | IC50 [4] [nM] | IC50 [12] [nM] | IC50 [13] [nM] | further results
Stable | Stable | Metabolite_Notdetected | Stable | Stable | Stable | Stable | Stable | Stable | Stable | CC(/C=C/C(=O)O[C@H]1CCCC(=O)O[C@@H]([C@@H](C)C/C(C)=C/[C@@H](C)[C@H](O)C[C@@H](C)O)C/C=C(\C)C[C@@H]1C)=C\[C@H](C)C/C=C/C(C)=C/[C@H](O)[C@@H](O)C[C@H](C)O | 400 | 83 | 120 | 63 | 
Stable | Stable | Metabolite_Notdetected | Stable | Stable | Stable | Stable | Stable | Stable | Stable | CC(/C=C/C(=O)O[C@H]1CCCC(=O)O[C@@H]([C@@H](C)C/C(C)=C/[C@@H](C)[C@H](O)C[C@@H](C)O)C/C=C(\C)C[C@@H]1C)=C\[C@@H](C)C/C=C/C(C)=C/[C@H](O)[C@@H](O)C[C@H](C)O | 77 | 3 | 29 | 53 | 

Compound | Stability [1] | Stability [2] | Drug metabolism [5] | Stability [6] | Stability [7] | Stability [8] | Stability [9] | Stability [10] | Stability [11] | Stability [14] | IC50 [3] [nM] | IC50 [4] [nM] | IC50 [12] [nM] | IC50 [13] [nM] | further results
CC(=CC(/C)=C/C=C/C(C)=C/[C@H](O)[C@@H](O)C[C@H](C)O)/C=C/C(=O)O[C@H]1CCCC(=O)O[C@@H]([C@@H](C)C/C(C)=C/[C@@H](C)[C@H](O)C[C@@H](C)O)C/C=C(\C)C[C@@H]1C (mixture of isomers) |  |  | Metabolite_Detected | Stable |  | Stable | Stable | Stable | Stable | Stable | 0.77 | 3.2 | 6.9 | 13 | solubility [15]: Insoluble; degraded at 26298 h [16]: 20%; solubility [17]: Soluble; degraded at 14 h [18]: 90%; Drug metabolism [19]: Metabolite_Detected; Drug metabolism [20]: Metabolite_Detected; degraded at 240 h [21]: 20 to 30%; degraded at 8 h [22]: 80%; Stability [23]: Stable
